From EP0080271A1, “Indomethacin phenyl ester derivatives, their use, and compositions containing them” (priority 1981, dated 1983)
Where two headings read alike, the source gives them in different places.

What was measured:
[1] = tested on: rats; test: intestinal ulcers and survival after oral administration for 5 days; type: in vivo; settings: group of 12 rats, oral for 5 days, daily dose 28 µM; for ulceration (%): percentage of surviving animals with ulcers
Experimental: Each compound listed in Table 5 was administered orally to a group of 12 rats for 5 days, and the number of intestinal ulcers was determined. The degree of ulceration was calculated as a percentage of number of […] surviving animals with respect to the number of surviving animals.

[2] = tested on: rats; test: ulceration activity: ulcer index 5 hours after oral administration; type: in vivo; settings: sacrificed 5 hours after administration
Experimental: (§1) Secondly, in order to assess ulceration activity, various compounds (listed in Table 2) were administered orally to a group of rats. The animals were sacrificed 5 hours after administration, and the ulcer index was determined. Compounds were also administered orally to a group of rats for 1 week, and the number of intestinal ulcers was determined. The same compounds were administered orally to a group of rats, the ulcer index being determined by observing the stomach 3 hours after administration.

[3] = LD50 by oral administration in mice; settings: mouse, in vivo, mice of the stock ddy
Experimental: LD50 of this compound, determined by means of oral administration in mice of the stock ddy, was 200 mg/kg.

[4] = tested on: edema induced by carrageenin in rat; test: inhibition of edema induced by carrageenin in rat (hind paw volume); type: in vivo; settings: oral 1 hour before carrageenin injection; for inhibition (%): 3 hours after injection; for edema (%): hind paw volume 3 hours after injection
Experimental: Firstly, in order to assess anti-inflammatory activity, the inhibition of edema induced by carrageenin in rat was studied. Various compounds (listed in Table 1) were administered orally to a group of rats just 1 hour before a carrageenin injection, and the hind paw volume was measured 3 hours after injection.

[5] = tested on: rats; test: number of intestinal ulcers after oral administration for 1 week; type: in vivo; settings: oral for 1 week, dose 15 µM
Experimental: as §1

[6] = tested on: rats; test: ulcer index, stomach observed 3 hours after oral administration; type: in vivo; settings: stomach 3 hours after administration, dose 0.056 mM
Experimental: as §1

[7] = tested on: serum esterase; settings: reported in Ceskoslovenska Farmacie 26 (1977) 6277; cited from earlier work
[8] = tested on: rats; type: in vivo; settings: group of 10 rats, oral, stomach 24 hours after administration, dose 0.060 mM
Experimental: Each compound listed in Table 6 was administered orally to a group of 10 rats and the ulcer index was determined by observing the stomach 24 hours after administration.

[9] = versus indomethacin plus salicyl salicylate

SMILES | number of intestinal ulcers [1] | ulceration (%) [1] | ulcer index (mm) ([2]; dose 0.030 mM) | inhibition (%) ([4]; dose 0.015 mM) | inhibition (%) ([4]; dose 0.030 mM) | edema (%) ([4]; dose 0.015 mM) | edema (%) ([4]; dose 0.030 mM) | other results
COc1ccc2c(c1)c(CC(=O)OCC(=O)O)c(C)n2C(=O)c1ccc(Cl)cc1 [Acemethacin, reference compound] | 11.0 | 100% | – | – | – | – | – | –
COc1ccc2c(c1)c(CC(=O)Oc1ccccc1C(=O)OCc1ccccc1)c(C)n2C(=O)c1ccc(Cl)cc1 [Example 1, 2-Benzyloxycarbonylphenyll-(p-chlorobenzoyl)-5-methoxy-2-methylindole-3-acetate] | – | – | 0.1 ± 0.1 mm | – | – | – | – | –
CCOC(=O)c1ccccc1OC(=O)Cc1c(C)n(C(=O)c2ccc(Cl)cc2)c2ccc(OC)cc12 [Example 2, 2-Ethoxycarbonylphenyl 1-(p-chlorobenzoyl)-5-methoxy-2-methylindole-3-acetate] | – | – | 0.2 ± 0.1 mm | 31.8% | 34.7% | 53.3 ± 8.7% | 52.9 ± 3.6% | LD50 [3]: 200 mg/kg
COc1ccc2c(c1)c(CC(=O)Oc1ccccc1C(=O)OC(C)(C)C)c(C)n2C(=O)c1ccc(Cl)cc1 [Example 3, 2-t-Butoxycarbonylphenyl 1-(p-chlorobenzoyl)-5-methoxy-2-methlindole-3-acetate] | – | – | 0.2 ± 0.1 mm | 35.8% | 34.7% | 52.0 ± 7.5% | 52.9 ± 3.6% | –
COc1ccc2c(c1)c(CC(=O)Oc1ccccc1C(=O)Oc1ccccc1C(=O)OCc1ccccc1)c(C)n2C(=O)c1ccc(Cl)cc1 [Example 4, 2-(2-Benzyloxycarbonylphenyl)oxycarbonylphenyl 1-(p-chlorobenzoyl)-5-methoxy-2-methylindole-3-acetate] | – | – | 0.4 ± 0.3 mm | – | – | – | – | –
COc1ccc2c(c1)c(CC(=O)Oc1ccccc1C(=O)Oc1ccccc1C(=O)O)c(C)n2C(=O)c1ccc(Cl)cc1 [Example 5, 2-(2-Hydroxycarbonylphenyl)oxycarbonylphenyll-(p-chlorobenzoyl)-5-methoxy-2-methylindole-3-acetate] | 2.4 ± 0.6 | 75% | 0.6 ± 0.3 mm | 42.7% | 48.7% | 46.4 ± 4.8% | 41.4 ± 5.3% | number of ulcers [5]: 0.5 ± 2.0; inhibition (%) [5, 9]: 98.4%; Ulcer index [6]: 3.7 ± 1.3; inhibition (%) [6, 9]: 86.0%
COc1ccc2c(c1)c(CC(=O)Oc1ccccc1C(=O)O)c(C)n2C(=O)c1ccc(Cl)cc1 [Indomethacin salicylic ester, 2-hydroxycarbonylphenyll-(p-chlorobenzoyl)-5-methoxy-2-methylindole-3-acetate] | 5.0 ± 0.4 | 100% | – | 49.4% | – | 41.0 ± 3.5% | – | hydrolysis by serum esterase [7]: hydrolysis by serum esterase; ulcer index (mm) [8]: 7.1 ± 1.6 mm; inhibition (%) ([8]; versus indomethacin): 73.2%
COc1ccc2c(c1)c(CC(=O)O)c(C)n2C(=O)c1ccc(Cl)cc1 [Indomethacin] | – | – | 5.9 ± 2.5 mm | 32.2% | 53.5% | 54.9 ± 6.5% | 37.7 ± 7.2% | number of survival animals [1]: 0; ulcer index (mm) ([2]; dose 21.5 mg/kg (0.060 mM)): 57.9 ± 6.6 mm; ulcer index (mm) [8]: 26.5 ± 6.2 mm
